Source: patent US20110059869A1, “Method for Increasing Enzymatic Reactivity” (RIKEN, priority 2008, published 2011)

What was measured:
[1] = State of streptavidin bead reaction solution during enzymatic reaction; type: physicochemical; conditions: 0.6 M additive; extended / three hours restriction enzyme reaction
From the text: Thus, with no nonuniformity in enzymatic activity, the various enzymatic reactions were promoted and the quantity of target DNA recovered increased.
This was attributed to characteristics such as the viscosity and diffusing effect of trehalose or sorbitol.

HindIII = experiment: DNA fragment II HindIII cleavage reactions on bead and plate surfaces with added substances; type: biochemical; conditions: 0.6 M sorbitol; beads and plate; not of the same degree as trehalose
Description: The effect of the presence of substances other than trehalose on enzymatic activity was examined for enzymatic reactions on the surface of a support. Sorbitol was employed as the added reagent. Trehalose was also added and a sorbitol+trehalose reaction system was examined (Scheme 7).
HindIII cleavage reactions were conducted on biotin-labeled DNA fragment II (Seq. ID No. 5, Scheme 4) on the surface of beads by adding trehalose, glucose, sorbitol, and betaine, and the 104 by DNA fragment released was detected. Paramagnetic streptavidin beads were washed with accessory 1× binding buffer, recovered with a magnetic stand to remove the supernatant, and suspended in the same buffer. […] The precipitate of DNA fragments thus obtained was dissolved in 1× TE (pH 7.5) and analyzed with Bioanalyzer DNA 1000 assay (Agilent Technologies).
Trehalose and sorbitol were added and a HindIII cleavage reaction was conducted on a horizontal plate surface on biotin-labeled DNA fragment II (Seq. ID No. 5, Scheme 4) and the 104 by DNA fragments that were released were detected. […] The precipitate of DNA fragments obtained was dissolved in 1× TE (pH 7.5) and analyzed with Bioanalyzer DNA 1000 assay (Agilent Technologies).

OC[C@@H](O)[C@@H](O)[C@H](O)[C@@H](O)CO [sorbitol, D(+) sorbitol]
uniformity of beads in the reaction solution [1]: uniformity in the solution of beads was maintained | enzymatic activity (yield of DNA recovered) (HindIII): high enzymatic activity was exhibited on all reaction surfaces
